This note sets out measurements from patent publication US12084472B2 (Ardelyx, Inc., priority 2015, dated 2024).

In the assay the target is T1, human TGR5 (Homo sapiens, UniProt Q8TDU6).
T1 construct: expressed in transfected cells; host or cells: HEK293
T1 sequence (Q8TDU6 1-330): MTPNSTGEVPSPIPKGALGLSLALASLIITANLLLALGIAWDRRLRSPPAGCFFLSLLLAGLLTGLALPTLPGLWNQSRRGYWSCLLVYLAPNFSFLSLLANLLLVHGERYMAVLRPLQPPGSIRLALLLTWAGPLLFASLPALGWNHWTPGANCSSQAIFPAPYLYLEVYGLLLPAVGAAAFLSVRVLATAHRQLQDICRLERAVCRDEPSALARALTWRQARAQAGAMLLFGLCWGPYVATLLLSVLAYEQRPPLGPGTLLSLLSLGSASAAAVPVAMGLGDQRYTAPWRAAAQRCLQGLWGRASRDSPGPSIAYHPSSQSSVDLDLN
Put plainly: Cell-based TGR5 assay (cAMP generation, HTRF). The following applies: HEK293 cells stably transfected with human TGR5; cAMP by HTRF; 30 minutes at 37° C.; read-out: pEC50 Human TGR5 (converted). In outline: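 First, compounds in 3-fold serial dilution were placed in HBSS with 10 mM HEPES pH 7.4 and 0.5 mM IBMX. Next, human TGR5-expressing HEK293 cells were added and incubated 30 min at 37° C. Finally, cAMP was detected by HTRF and pEC50 derived by logistic fitting.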
In general terms: TR-FRET usually uses a lanthanide donor and a delayed reading to cut background.
With `O=C(NCCCCCS(=O)(=O)c1ccc(Cl)c(COC2(c3cnccc3-c3ccccc3OC3CC3)CC2)c1)NC[C@H](O)[C@@H](O)[C@H](O)[C@H](O)CO` [Compound I-640, 1-{5-[4-chloro-3-({1-[4-(2-cyclopropoxyphenyl)pyridin-3-yl]cyclopropoxy}methyl)benzenesulfonyl]pentyl}-3-[(2S,3R,4R,5R)-2,3,4,5,6-pentahydroxyhexyl]urea], the EC50 was less than 100 nM. Take `O=C(NCCOCCS(=O)(=O)c1ccc(Cl)c(COC2(c3cnccc3-c3ccccc3OC3CC3)CC2)c1)N[C@@H](CO)[C@@H](O)[C@H](O)[C@H](O)CO` [Compound I-641, 1-(2-{2-[4-chloro-3-({1-[4-(2-cyclopropoxyphenyl)pyridin-3-yl]cyclopropoxy}methyl)benzenesulfonyl]ethoxy}ethyl)-3-[(2S,3R,4S,5R)-1,3,4,5,6-pentahydroxyhexan-2-yl]urea]: the EC50 was less than 100 nM. Then `O=C(NCCCCC[S+]([O-])c1ccc(Cl)c(COC2(c3cnccc3-c3ccccc3OC3CC3)CC2)c1)N[C@@H](CO)[C@@H](O)[C@H](O)[C@H](O)CO` (stereo partly drawn) [Compound I-642, 1-{5-[4-chloro-3-({1-[4-(2-cyclopropoxyphenyl)pyridin-3-yl]cyclopropoxy}methyl)benzenesulfinyl]pentyl}-3-[(2S,3R,4S,5R)-1,3,4,5,6-pentahydroxyhexan-2-yl]urea], with less than 100 nM; and `O=C(NCCCCCS(=O)(=O)c1ccc(Cl)c(COC2(c3cnccc3-c3ccccc3OC3CC3)CC2)c1)N[C@@H](CO)[C@@H](O)[C@H](O)[C@H](O)CO` [Compound I-643, 1-{5-[4-chloro-3-({1-[4-(2-cyclopropoxyphenyl)pyridin-3-yl]cyclopropoxy}methyl)benzenesulfonyl]pentyl}-3-[(2S,3R,4S,5R)-1,3,4,5,6-pentahydroxyhexan-2-yl]urea], with less than 100 nM; and `O=C(NCCOCC[S+]([O-])c1ccc(Cl)c(COC2(c3cnccc3-c3ccccc3OC3CC3)CC2)c1)N[C@@H](CO)[C@@H](O)[C@H](O)[C@H](O)CO` (stereo partly drawn) [Compound I-644, 1-(2-{2-[4-chloro-3-({1-[4-(2-cyclopropoxyphenyl)pyridin-3-yl]cyclopropoxy}methyl)benzenesulfinyl]ethoxy}ethyl)-3-[(2S,3R,4S,5R)-1,3,4,5,6-pentahydroxyhexan-2-yl]urea], with less than 100 nM.

As for `Cc1ccc(SCCCCC(=O)NC[C@H](O)[C@@H](O)[C@H](O)[C@H](O)CO)nc1CNC1(c2cnccc2-c2ccccc2OC2CC2)CC1` [Compound I-645, 5-({6-[({1-[4-(2-cyclopropoxyphenyl)pyridin-3-yl]cyclopropyl}amino)methyl]-5-methylpyridin-2-yl}sulfanyl)-N-[(2S,3R,4R,5R)-2,3,4,5,6-pentahydroxyhexyl]pentanamide], the EC50 was less than 100 nM.

On to `CN(C[C@H](O)[C@@H](O)[C@H](O)[C@H](O)CO)C(=O)CCCS(=O)(=O)c1ccc(Cl)c(CNC2(c3cnccc3-c3ccccc3OC3CC3)CC2)c1` [Compound I-646, 4-{4-chloro-3-[({1-[4-(2-cyclopropoxyphenyl)pyridin-3-yl]cyclopropyl}amino)methyl]benzenesulfonyl}-N-methyl-N-[(2S,3R,4R,5R)-2,3,4,5,6-pentahydroxyhexyl]butanamide], for which the EC50 was less than 100 nM. To `CN(C[C@H](O)[C@@H](O)[C@H](O)[C@H](O)CO)C(=O)CCC[S+]([O-])c1ccc(Cl)c(CNC2(c3cnccc3-c3ccccc3OC3CC3)CC2)c1` (stereo partly drawn) [Compound I-647, 4-{4-chloro-3-[({1-[4-(2-cyclopropoxyphenyl)pyridin-3-yl]cyclopropyl}amino)methyl]benzenesulfinyl}-N-methyl-N-[(2S,3R,4R,5R)-2,3,4,5,6-pentahydroxyhexyl]butanamide] belongs 126 to 1000 nM; to `CN(C[C@H](O)[C@@H](O)[C@H](O)[C@H](O)CO)C(=O)CCCSc1ccc(Cl)c(COC2(c3cnccc3-c3ccccc3OC3CC3)CC2)c1` [Compound I-648, 4-{[4-chloro-3-({1-[4-(2-cyclopropoxyphenyl)pyridin-3-yl]cyclopropoxy}methyl)phenyl]sulfanyl}-N-methyl-N-[(2S,3R,4R,5R)-2,3,4,5,6-pentahydroxyhexyl]butanamide], less than 100 nM. To `O=C(CCCSc1ccc(Cl)c(CNC2(c3cnccc3-c3ccccc3OC3CC3)CC2)c1)NC[C@H](O)[C@@H](O)[C@H](O)[C@H](O)CO` [Compound I-649, 4-({4-chloro-3-[({1-[4-(2-cyclopropoxyphenyl)pyridin-3-yl]cyclopropyl}amino)methyl]phenyl}sulfanyl)-N-[(2S,3R,4R,5R)-2,3,4,5,6-pentahydroxyhexyl]butanamide] belongs less than 100 nM; to `CN(C[C@H](O)[C@@H](O)[C@H](O)[C@H](O)CO)C(=O)CCCSc1ccc(Cl)c(CNC2(c3cnccc3-c3ccccc3OC3CC3)CC2)c1` [Compound I-650, 4-({4-chloro-3-[({1-[4-(2-cyclopropoxyphenyl)pyridin-3-yl]cyclopropyl}amino)methyl]phenyl}sulfanyl)-N-methyl-N-[(2S,3R,4R,5R)-2,3,4,5,6-pentahydroxyhexyl]butanamide], less than 100 nM; to `Cc1ccc(SCCCC(=O)NC[C@H](O)[C@@H](O)[C@H](O)[C@H](O)CO)cc1COC1(c2cnccc2-c2ccccc2OC2CC2)CC1` [Compound I-651, 4-{[3-({1-[4-(2-cyclopropoxyphenyl)pyridin-3-yl]cyclopropoxy}methyl)-4-methylphenyl]sulfanyl}-N-[(2S,3R,4R,5R)-2,3,4,5,6-pentahydroxyhexyl]butanamide], less than 100 nM. For the molecule `Cc1ccc(SCCCC(=O)N(C)C[C@H](O)[C@@H](O)[C@H](O)[C@H](O)CO)cc1COC1(c2cnccc2-c2ccccc2OC2CC2)CC1` [Compound I-652, 4-{[3-({1-[4-(2-cyclopropoxyphenyl)pyridin-3-yl]cyclopropoxy}methyl)-4-methylphenyl]sulfanyl}-N-methyl-N-[(2S,3R,4R,5R)-2,3,4,5,6-pentahydroxyhexyl]butanamide], the EC50 is less than 100 nM.

Consider `Cc1ccc(SCCCC(=O)NC[C@H](O)[C@@H](O)[C@H](O)[C@H](O)CO)nc1CNC1(c2cnccc2-c2ccccc2OC2CC2)CC1` [Compound I-653, 4-({6-[({1-[4-(2-cyclopropoxyphenyl)pyridin-3-yl]cyclopropyl}amino)methyl]-5-methylpyridin-2-yl}sulfanyl)-N-[(2S,3R,4R,5R)-2,3,4,5,6-pentahydroxyhexyl]butanamide], for which the EC50 is 1260 to 10000 nM. To `Cc1ccc(SCCCC(=O)N(C)C[C@H](O)[C@@H](O)[C@H](O)[C@H](O)CO)nc1CNC1(c2cnccc2-c2ccccc2OC2CC2)CC1` [Compound I-654, 4-({6-[({1-[4-(2-cyclopropoxyphenyl)pyridin-3-yl]cyclopropyl}amino)methyl]-5-methylpyridin-2-yl}sulfanyl)-N-methyl-N-[(2S,3R,4R,5R)-2,3,4,5,6-pentahydroxyhexyl]butanamide] belongs 1260 to 10000 nM; to `Cc1cnc(SCCCC(=O)NC[C@H](O)[C@@H](O)[C@H](O)[C@H](O)CO)nc1CNC1(c2cnccc2-c2ccccc2OC2CC2)CC1` [Compound I-655, 4-({4-[({1-[4-(2-cyclopropoxyphenyl)pyridin-3-yl]cyclopropyl}amino)methyl]-5-methylpyrimidin-2-yl}sulfanyl)-N-[(2S,3R,4R,5R)-2,3,4,5,6-pentahydroxyhexyl]butanamide], 12600 to 50100 nM; to `Cc1cnc(SCCCC(=O)N(C)C[C@H](O)[C@@H](O)[C@H](O)[C@H](O)CO)nc1CNC1(c2cnccc2-c2ccccc2OC2CC2)CC1` [Compound I-656, 4-({4-[({1-[4-(2-cyclopropoxyphenyl)pyridin-3-yl]cyclopropyl}amino)methyl]-5-methylpyrimidin-2-yl}sulfanyl)-N-methyl-N-[(2S,3R,4R,5R)-2,3,4,5,6-pentahydroxyhexyl]butanamide], 12600 to 50100 nM.

For the molecule `Cc1ccc(SCCCCC(=O)NC[C@H](O)[C@@H](O)[C@H](O)[C@H](O)CO)nc1COC1(c2cnccc2-c2ccccc2OC2CC2)CC1` [Compound I-657, 5-{[6-({1-[4-(2-cyclopropoxyphenyl)pyridin-3-yl]cyclopropoxy}methyl)-5-methylpyridin-2-yl]sulfanyl}-N-[(2S,3R,4R,5R)-2,3,4,5,6-pentahydroxyhexyl]pentanamide], the EC50 was 1260 to 10000 nM. For the molecule `Cc1ccc(SCCCCC(=O)N(C)C[C@H](O)[C@@H](O)[C@H](O)[C@H](O)CO)nc1COC1(c2cnccc2-c2ccccc2OC2CC2)CC1` [Compound I-658, 5-{[6-({1-[4-(2-cyclopropoxyphenyl)pyridin-3-yl]cyclopropoxy}methyl)-5-methylpyridin-2-yl]sulfanyl}-N-methyl-N-[(2S,3R,4R,5R)-2,3,4,5,6-pentahydroxyhexyl]pentanamide], the EC50 is 1260 to 10000 nM. Then `CCN(C[C@H](O)[C@@H](O)[C@H](O)[C@H](O)CO)C(=O)CCCSc1ccc(Cl)c(COC2(c3cnccc3-c3ccccc3OC3CC3)CC2)c1` [Compound I-659, 4-{[4-chloro-3-({1-[4-(2-cyclopropoxyphenyl)pyridin-3-yl]cyclopropoxy}methyl)phenyl]sulfanyl}-N-ethyl-N-[(2S,3R,4R,5R)-2,3,4,5,6-pentahydroxyhexyl]butanamide], with less than 100 nM.
